ChEMBL document CHEMBL1201862, “PubChem BioAssay data set” (2004)
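These data come from cells grown in 96-well plates and exposed to compound for 48 hours at five concentrations. GI50: concentration for 50% inhibition of growth.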 Calls of active or inactive are those of the source. No stated cut-off is given here; in the data, active = GI50 up to about 1.1 µM and inactive = higher.

Tests used:
Assay in all cases: NCI-60 cell line screen, 48 h
[1] = test system: HCT-116
[2] = test system: UO-31
[3] = test system: KM12
[4] = test system: HOP-62
[5] = test system: CAKI-1
[6] = test system: OVCAR-5
[7] = test system: K562
[8] = test system: UACC-257
[9] = test system: UACC-62
[10] = test system: SF-539
[11] = test system: SK-MEL-5
[12] = test system: MCF7
[13] = test system: M14
[14] = test system: ACHN
[15] = test system: SN12C
[16] = test system: HCC 2998
[17] = test system: SNB-75
[18] = test system: IGROV-1
[19] = test system: OVCAR-3
[20] = test system: HL-60

Row | SMILES | GI50 [1] | GI50 [2] | GI50 [3] | GI50 [4] | GI50 [5] | GI50 [6] | GI50 [7] | GI50 [8] | GI50 [9] | GI50 [10] | GI50 [11] | GI50 [12] | GI50 [13] | GI50 [14] | GI50 [15] | GI50 [16] | GI50 [17] | GI50 [18] | GI50 [19] | GI50 [20]
1 | CC(C)(C)c1ccc(O)c(CN(Cc2cc(C(C)(C)C)ccc2O)C2CCCCC2)c1 | 16.2 µM (inactive) | 23.2 µM (inactive) | 20.5 µM (inactive) | 18.5 µM (inactive) | 26.2 µM (inactive) | 17.7 µM (inactive) | 6.46 µM (inactive) | 18.3 µM (inactive) | 15.7 µM (inactive) | 17.3 µM (inactive) | 15.8 µM (inactive) | 17.4 µM (inactive) | 13.6 µM (inactive) | 20 µM (inactive) | 16.4 µM (inactive) | 2.01 µM (inactive) | 23.3 µM (inactive) | 17.6 µM (inactive) | 18.2 µM (inactive) | –
2 | Nc1nc(Cl)cc(NCC2(CO)CC(c3ccccc3)C2)n1 (configuration not stated) | 11.4 µM (inactive) | 16.6 µM (inactive) | 39.5 µM (inactive) | > 100 µM (inactive) | > 100 µM (inactive) | > 100 µM (inactive) | 9.57 µM (inactive) | 20.5 µM (inactive) | 32.4 µM (inactive) | > 100 µM (inactive) | 9.12 µM (inactive) | 22.9 µM (inactive) | 34.6 µM (inactive) | 16.1 µM (inactive) | 13.8 µM (inactive) | – | 18.1 µM (inactive) | > 100 µM (inactive) | > 100 µM (inactive) | 17.6 µM (inactive)
3 | CN(C)CN1C(=O)/C(=N\n2c(S)nnc2-c2ccncc2)c2ccccc21 | 34 µM (inactive) | 29.5 µM (inactive) | 43.7 µM (inactive) | 24.8 µM (inactive) | 69.3 µM (inactive) | > 100 µM (inactive) | 26.5 µM (inactive) | 15.5 µM (inactive) | 42.4 µM (inactive) | 23.5 µM (inactive) | 39.4 µM (inactive) | 31.3 µM (inactive) | 24.8 µM (inactive) | 48.1 µM (inactive) | 35.2 µM (inactive) | – | 38.5 µM (inactive) | 38.5 µM (inactive) | 66.5 µM (inactive) | 11.7 µM (inactive)
4 | Cc1ncc2c(n1)CCC1=C2OS(=O)(=O)CC1N(C)C (configuration not stated) | 98.2 µM (inactive) | > 100 µM (inactive) | > 100 µM (inactive) | 76.6 µM (inactive) | 69.5 µM (inactive) | > 100 µM (inactive) | > 100 µM (inactive) | > 100 µM (inactive) | 96.6 µM (inactive) | > 100 µM (inactive) | 70 µM (inactive) | > 100 µM (inactive) | 95.9 µM (inactive) | > 100 µM (inactive) | > 100 µM (inactive) | – | > 100 µM (inactive) | > 100 µM (inactive) | > 100 µM (inactive) | > 100 µM (inactive)
5 | CC(=O)c1cc2sc3ccccc3c2[nH]1 | > 100 µM (inactive) | 56.4 µM (inactive) | > 100 µM (inactive) | > 100 µM (inactive) | > 100 µM (inactive) | > 100 µM (inactive) | > 100 µM (inactive) | – | 26.7 µM (inactive) | > 100 µM (inactive) | > 100 µM (inactive) | > 100 µM (inactive) | > 100 µM (inactive) | > 100 µM (inactive) | > 100 µM (inactive) | > 100 µM (inactive) | – | – | > 100 µM (inactive) | –
6 | COc1ccc(C(=O)/C=C/S/C(=N/C#N)SC)cc1 | 14.9 µM (inactive) | 17.9 µM (inactive) | 25.9 µM (inactive) | 24.3 µM (inactive) | 22.9 µM (inactive) | 24 µM (inactive) | 10.7 µM (inactive) | 20.4 µM (inactive) | 20 µM (inactive) | 20 µM (inactive) | 21.8 µM (inactive) | 18.4 µM (inactive) | 18.3 µM (inactive) | 20.4 µM (inactive) | 24.4 µM (inactive) | – | 27.9 µM (inactive) | 21.8 µM (inactive) | 16.4 µM (inactive) | 16.6 µM (inactive)
7 | COc1cc(OC)nc(-n2c(N)c(C(=O)O)c3ccc([N+](=O)[O-])cc3c2=O)n1 | > 100 µM (inactive) | 71.1 µM (inactive) | > 100 µM (inactive) | > 100 µM (inactive) | > 100 µM (inactive) | > 100 µM (inactive) | > 100 µM (inactive) | – | > 100 µM (inactive) | – | > 100 µM (inactive) | > 100 µM (inactive) | > 100 µM (inactive) | > 100 µM (inactive) | > 100 µM (inactive) | > 100 µM (inactive) | > 100 µM (inactive) | 67.8 µM (inactive) | > 100 µM (inactive) | 60.5 µM (inactive)
8 | OCC1=C[C@@](COCc2ccccc2)(OCc2ccccc2)[C@@H](OCc2ccccc2)[C@@H]1OCc1ccccc1 | 12.2 µM (inactive) | 17 µM (inactive) | 15.9 µM (inactive) | 24.2 µM (inactive) | 14.5 µM (inactive) | 26.3 µM (inactive) | 10.6 µM (inactive) | 22.6 µM (inactive) | 17.3 µM (inactive) | – | 15.7 µM (inactive) | 3.76 µM (inactive) | 23.9 µM (inactive) | 22.9 µM (inactive) | 2.86 µM (inactive) | 13.7 µM (inactive) | – | 7.01 µM (inactive) | 11.7 µM (inactive) | 23.4 µM (inactive)
9 | CC(C)=CC(O)C(C(O)CCC1(C)OCCO1)S(=O)(=O)c1ccccc1 (configuration not stated) | > 100 µM (inactive) | > 100 µM (inactive) | > 100 µM (inactive) | > 100 µM (inactive) | > 100 µM (inactive) | > 100 µM (inactive) | – | > 100 µM (inactive) | – | > 100 µM (inactive) | – | > 100 µM (inactive) | > 100 µM (inactive) | > 100 µM (inactive) | > 100 µM (inactive) | > 100 µM (inactive) | > 100 µM (inactive) | > 100 µM (inactive) | > 100 µM (inactive) | –
10 | COc1ccc(/C=C2/SC(c3ccccc3)N(NC(=O)CCCCCCCCC(=O)NN3C(=O)/C(=C\c4ccc(OC)c(OC)c4)SC3c3ccccc3)C2=O)cc1OC (configuration not stated) | 29.1 µM (inactive) | 58.2 µM (inactive) | 45 µM (inactive) | 35 µM (inactive) | 53.6 µM (inactive) | > 100 µM (inactive) | 6.59 µM (inactive) | 39.4 µM (inactive) | 29 µM (inactive) | 24.6 µM (inactive) | – | 34 µM (inactive) | > 100 µM (inactive) | 25.6 µM (inactive) | > 100 µM (inactive) | > 100 µM (inactive) | 35.2 µM (inactive) | 1.03 µM (active) | > 100 µM (inactive) | –
11 | CCCCCCCCCCCCCCCCP(=O)([O-])OCC[N+](C)(C)C | 14.8 µM (inactive) | 14.9 µM (inactive) | 2.61 µM (inactive) | 15.2 µM (inactive) | 12.1 µM (inactive) | 8.55 µM (inactive) | 19 µM (inactive) | 16.9 µM (inactive) | 13.9 µM (inactive) | 24.5 µM (inactive) | 16 µM (inactive) | 17.5 µM (inactive) | 15.3 µM (inactive) | 16.5 µM (inactive) | 12.9 µM (inactive) | 6.19 µM (inactive) | 14.8 µM (inactive) | 1.56 µM (inactive) | 17.1 µM (inactive) | –
12 | Cc1c(N2C(=O)/C(=C/c3ccc(Cl)cc3)N=C2c2ccccc2)c(=O)n(-c2ccccc2)n1C | 32.3 µM (inactive) | 26.2 µM (inactive) | 26.5 µM (inactive) | 81.5 µM (inactive) | 34.6 µM (inactive) | 49.2 µM (inactive) | 36.6 µM (inactive) | 18.3 µM (inactive) | 21.1 µM (inactive) | 28.5 µM (inactive) | 17.8 µM (inactive) | 29 µM (inactive) | 36.8 µM (inactive) | 24.8 µM (inactive) | 34.1 µM (inactive) | – | 22.5 µM (inactive) | 29 µM (inactive) | 27.1 µM (inactive) | 27.4 µM (inactive)
13 | O=C(NNC(=O)c1ccccc1O)c1ccc(O)cc1 | 33.2 µM (inactive) | 42 µM (inactive) | 45.3 µM (inactive) | 47.5 µM (inactive) | 50.9 µM (inactive) | > 100 µM (inactive) | 84.9 µM (inactive) | 89.1 µM (inactive) | 28.1 µM (inactive) | 66.7 µM (inactive) | > 100 µM (inactive) | 58.9 µM (inactive) | 23.7 µM (inactive) | – | > 100 µM (inactive) | – | 24.4 µM (inactive) | 23.9 µM (inactive) | 38.4 µM (inactive) | 52.8 µM (inactive)
14 | CCCCCCCCCCCCOCCOCCOCCOCCOCCOCC(=O)NC(Cc1ccccc1)C(=O)Oc1ccc([N+](=O)[O-])cc1 (configuration not stated) | 31.6 µM (inactive) | 26 µM (inactive) | 40.1 µM (inactive) | 40.9 µM (inactive) | > 100 µM (inactive) | > 100 µM (inactive) | 41.7 µM (inactive) | 29.9 µM (inactive) | 21.8 µM (inactive) | 36.4 µM (inactive) | 31.8 µM (inactive) | 38.1 µM (inactive) | 31.5 µM (inactive) | 27.2 µM (inactive) | – | – | 27 µM (inactive) | 44.3 µM (inactive) | 22.9 µM (inactive) | 21.9 µM (inactive)
15 | COc1ccc(CC2(O)C3CC4CCC2C4C3)cc1 (configuration not stated) | – | 49.7 µM (inactive) | > 100 µM (inactive) | > 100 µM (inactive) | > 100 µM (inactive) | > 100 µM (inactive) | 49.1 µM (inactive) | 38.5 µM (inactive) | > 100 µM (inactive) | – | 31.9 µM (inactive) | 65.6 µM (inactive) | > 100 µM (inactive) | > 100 µM (inactive) | 77.4 µM (inactive) | – | 48.9 µM (inactive) | > 100 µM (inactive) | > 100 µM (inactive) | 51.1 µM (inactive)
